Some results are limits rather than exact numbers.

Usually IC50 stands for the midpoint of a concentration-inhibition curve.

One test concerns various kinases. The test is described as follows: Inhibitory activity against various kinases, DiscoverX scanMAX Kinase panel, % control at 1 μM. It is filed as binding. Here is the method:
The activities of the compounds according to the present disclosure on various enzymes were evaluated. Specifically, it was commissioned DiscoverX to measure enzyme selectivity for the compounds of Examples 3, 9, and 83 above, and the experiment was conducted using a panel for scanMAX™ Kinase analysis. Herein, a solution prepared by dissolving in DMSO at a concentration of 1 μM was used as the drug treated with the enzyme, and the control percentage (% control) was determined by the method of Equation 1 below, and the results are shown in Table 8 below.
Herein, when the calculated percentage value for each enzyme was less than 35%, it was determined to have inhibitory activity for the enzyme. Accordingly, among the series of enzymes tested, the enzymes showing the inhibitory activities of the compounds of the present disclosure are summarized and shown in Table 8 below along with the control percentages thereof. (©): less than 10%; ◯: 10% or more to less than 35%).

A further test addresses T1, human c-KIT(wt) (Homo sapiens, UniProt P10721).
T1 construct: purchased Signalchem K06-11BG
Description: Enzyme inhibitory activity, ADP-Glo kinase assay, c-KIT(wt). It is filed as biochemical. The conditions noted are these: read-out: c-KIT (WT) (IC50 class). The procedure:
(§1) In order to evaluate the inhibitory activity of the compounds synthesized according to the above examples on PDGFR-α(wt), PDGFR-β(wt), c-KIT(wt), and c-KIT(D816V) kinases, the following method was performed. The compounds of examples were reacted with purified human PDGFR-α(wt) (Signalchem #P12-18G) enzyme, human PDGFR-β(wt) (Signalchem #P13-11G) enzyme, human c-KIT(wt) (Signalchem #K06-11BG) enzyme, human c-KIT(D816V) (Signalchem #C06-12LG) enzyme, and the enzyme inhibitory abilities were evaluated by the following method.
(§2) The reaction buffer was used as a composition of 40 mM Tris-HCl pH7.4, 20 mM MgCl2, 0.5 mg/ml BSA, 50 μM DTT, and the reactions of all the tests were carried out on the reaction buffer. The compound was diluted in 12 steps using a serial dilution method from a 10 mM DMSO stock, and the enzyme activity was measured at a final compound concentration of 10˜0.00005645 μM. During the test, the enzyme activity was confirmed using in vitro ADP-Glo™ kinase assay (Promega) after reacting with the proper concentration of human PDGFR-α(wt) enzyme, human PDGFR-β(wt), human c-KIT(wt) enzyme, and human c-KIT(D816V) enzyme with purified ATP and enzyme substrate at 25° C. for 1˜2 hours. At a ratio of 2:2:1, an enzyme-active reaction solution, an ADP-Glo reaction solution, and an enzyme-active detection solution were reacted to measure the inhibition of the enzyme's activity with luminoscence. Based on the […] of the enzyme activity of the solvent control that was not treated with the compound, the degree of enzyme activity inhibition was calculated according to the treatment concentration of each compound, and the concentration of each compound that inhibits 50% of enzyme activity was determined as IC50 (nM) value and the value was obtained by using GraphPad Prism 8.3.0 (GraphPad software Inc., San Diego) software. (A: IC50≤50 nM; B: 50 nM<IC50≤100 nM; C: 100 nM<IC50≤500 nM; D: IC50>500 nM).

The target in test [1] is T2, c-KIT D816V (Homo sapiens, UniProt P10721, D816V). The test is described as follows: Enzyme inhibitory activity, ADP-Glo kinase assay, c-KIT(D816V). Format: biochemical. Set-up: purchased Signalchem C06-12LG. Particulars: read-out: c-KIT (D816V) (IC50 class). Here is the method:
as §1, §2
On the technique in general: In ADP-Glo the light output rises with the ADP produced.

For another test, the system named is Ba/F3-TEL-PDGFβ(WT). The test is described as follows: Proliferation inhibitory activity on Ba/F3 cell (CellTiter-Glo, 72 hours), PDGFR-β. It is filed as cell-based. Particulars: Mus musculus, BaF3, read-out: Ba/F3 (nM) Tel-PDGFRβ (GI50 class). The method, boiled down:
(§3)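 3×10^3 Ba/F3 cells/well; cpd 0.00005-10 μM final, 3-fold × 12 pts, DMSO ctrl; 37 °C CO2, 72 h. CellTiter-Glo added, ~10 min RT, luminescence read. GI50 (nM) vs vehicle.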
For orientation: In ATP-based viability assays light output follows the ATP content of the culture.

The next test deals with c-KIT D814Y. Description: Proliferation inhibitory activity on Ba/F3 cell (CellTiter-Glo, 72 hours), c-KIT D814Y. It is filed as cell-based. The conditions noted are these: Mus musculus, BaF3, c-KIT D814Y cells, read-out: Cell (nM) c-KIT D814Y (GI50 class). Here is the method: Ba/F3-TEL-PDGFRα(WT), Ba/F3-TEL-PDGFβ(WT), Ba/F3-c-KIT(D816V) (Kyinno, #KC-0138), c-KIT V560G/D816V, c-KIT D814Y were seeded at 3×10^3/100 μl/well in a clear bottom white 96-well plate. A culture solution containing compounds of 12 concentrations (0.00001-2 mM) serially diluted in 3 folds and the DMSO control group was added at 0.5 μl/well each to a final concentration of 0.00005-10 μM, and then incubated in a CO2 incubator at 37° C. for 72 hours. After 72 hours, the plate treated with the compound was taken out, CellTiter-Glo® Assay (Promega) solution was treated with 100 μl/well, followed by mixing well. After mixing well for about 10 minutes at room temperature, […] was measured using a microplate reader. The data were presented as percentages in proportion to treated cells based on the vehicle, GI50 (nM) values were calculated using GraphPad Prism 8.3.0 (GraphPad software Inc., San Diego).
The inhibitory activities of Ba/F3 expressing PDGFR-α, PDGFR-β, c-KIT(D816V), c-KIT V560G/D816V, and c-KIT D814Y measured as described above were measured and shown in Table 7 below (A: GI50≤200 nM; B: 200 nM<GI50≤500 nM; C: GI50>500 nM).

A further test deals with T3, human PDGFR-α(wt) (Homo sapiens, UniProt P16234).
T3 construct: purchased Signalchem P12-18G
The test is described as follows: Enzyme inhibitory activity, ADP-Glo kinase assay, PDGFR-α(wt). Format: biochemical. Particulars: read-out: PDGFR-α (IC50 class). An outline of the steps: (§4)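 Purified human kinases incubated with ATP and substrate 1–2 h at 25 °C in 40 mM Tris-HCl pH 7.4, 20 mM MgCl2, BSA, DTT, compound over 12 concentrations (10–0.00005645 μM final). ADP formed quantified by ADP-Glo luminescence; IC50 from inhibition versus DMSO control, reported in bins A–D.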

For the next test, the system named is Ba/F3-TEL-PDGFRα(WT). The test is described as follows: Proliferation inhibitory activity on Ba/F3 cell (CellTiter-Glo, 72 hours), PDGFR-α. The conditions noted are these: Mus musculus, BaF3, read-out: Ba/F3 (nM) Tel-PDGFRα (GI50 class). Format: cell-based. The method, boiled down:
as §3

For a further test, the system named is Ba/F3-c-KIT(D816V). The test is described as follows: Proliferation inhibitory activity on Ba/F3 cell (CellTiter-Glo, 72 hours), c-KIT(D816V). It is filed as cell-based. Particulars: Mus musculus, BaF3, read-out: Ba/F3 (nM) c-KIT (D816V) (GI50 class). An outline of the steps:
as §3

Another test deals with c-KIT V560G/D816V. Description: Proliferation inhibitory activity on Ba/F3 cell (CellTiter-Glo, 72 hours), c-KIT V560G/D816V. It is filed as cell-based. Particulars: Mus musculus, BaF3, c-KIT V560G/D816V cells, read-out: Cell (nM) c-KIT V560G/D816V (GI50 class). An outline of the steps: as §3
The next test has as its target T4, human PDGFR-β(wt) (Homo sapiens, UniProt P09619).
T4 construct: purchased Signalchem P13-11G
The test is described as follows: Enzyme inhibitory activity, ADP-Glo kinase assay, PDGFR-β(wt). The conditions noted are these: read-out: PDGFR-β (IC50 class). Format: biochemical. The method, boiled down:
as §4

Test [2] deals with T2, c-KIT D816V. Particulars: background art; cited from earlier work.

T2 sequence (P10721 26-976 D816V): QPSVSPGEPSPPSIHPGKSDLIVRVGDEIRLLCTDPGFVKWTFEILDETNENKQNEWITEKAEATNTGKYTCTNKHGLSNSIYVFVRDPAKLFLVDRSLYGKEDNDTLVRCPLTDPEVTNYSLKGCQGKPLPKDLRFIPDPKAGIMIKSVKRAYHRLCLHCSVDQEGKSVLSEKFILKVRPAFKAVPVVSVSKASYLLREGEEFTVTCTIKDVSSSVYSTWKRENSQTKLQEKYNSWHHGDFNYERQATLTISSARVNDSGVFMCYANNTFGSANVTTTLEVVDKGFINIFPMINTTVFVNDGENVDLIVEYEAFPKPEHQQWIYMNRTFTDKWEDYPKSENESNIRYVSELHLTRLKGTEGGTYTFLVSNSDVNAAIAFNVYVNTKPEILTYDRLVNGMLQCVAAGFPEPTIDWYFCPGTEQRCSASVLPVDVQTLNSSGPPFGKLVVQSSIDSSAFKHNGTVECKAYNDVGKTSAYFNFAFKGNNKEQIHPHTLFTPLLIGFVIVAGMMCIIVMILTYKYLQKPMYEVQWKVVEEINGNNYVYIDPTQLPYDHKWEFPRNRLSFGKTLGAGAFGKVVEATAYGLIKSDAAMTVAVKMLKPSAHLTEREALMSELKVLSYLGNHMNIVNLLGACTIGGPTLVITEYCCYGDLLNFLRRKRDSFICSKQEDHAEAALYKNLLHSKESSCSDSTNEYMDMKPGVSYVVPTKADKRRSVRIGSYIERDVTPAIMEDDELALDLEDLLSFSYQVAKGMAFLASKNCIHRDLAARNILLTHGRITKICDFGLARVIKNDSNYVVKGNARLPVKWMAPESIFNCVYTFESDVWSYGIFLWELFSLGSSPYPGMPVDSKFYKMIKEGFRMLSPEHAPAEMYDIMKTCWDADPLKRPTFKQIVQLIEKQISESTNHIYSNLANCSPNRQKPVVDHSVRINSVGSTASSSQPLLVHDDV
T4 sequence (P09619 33-1106): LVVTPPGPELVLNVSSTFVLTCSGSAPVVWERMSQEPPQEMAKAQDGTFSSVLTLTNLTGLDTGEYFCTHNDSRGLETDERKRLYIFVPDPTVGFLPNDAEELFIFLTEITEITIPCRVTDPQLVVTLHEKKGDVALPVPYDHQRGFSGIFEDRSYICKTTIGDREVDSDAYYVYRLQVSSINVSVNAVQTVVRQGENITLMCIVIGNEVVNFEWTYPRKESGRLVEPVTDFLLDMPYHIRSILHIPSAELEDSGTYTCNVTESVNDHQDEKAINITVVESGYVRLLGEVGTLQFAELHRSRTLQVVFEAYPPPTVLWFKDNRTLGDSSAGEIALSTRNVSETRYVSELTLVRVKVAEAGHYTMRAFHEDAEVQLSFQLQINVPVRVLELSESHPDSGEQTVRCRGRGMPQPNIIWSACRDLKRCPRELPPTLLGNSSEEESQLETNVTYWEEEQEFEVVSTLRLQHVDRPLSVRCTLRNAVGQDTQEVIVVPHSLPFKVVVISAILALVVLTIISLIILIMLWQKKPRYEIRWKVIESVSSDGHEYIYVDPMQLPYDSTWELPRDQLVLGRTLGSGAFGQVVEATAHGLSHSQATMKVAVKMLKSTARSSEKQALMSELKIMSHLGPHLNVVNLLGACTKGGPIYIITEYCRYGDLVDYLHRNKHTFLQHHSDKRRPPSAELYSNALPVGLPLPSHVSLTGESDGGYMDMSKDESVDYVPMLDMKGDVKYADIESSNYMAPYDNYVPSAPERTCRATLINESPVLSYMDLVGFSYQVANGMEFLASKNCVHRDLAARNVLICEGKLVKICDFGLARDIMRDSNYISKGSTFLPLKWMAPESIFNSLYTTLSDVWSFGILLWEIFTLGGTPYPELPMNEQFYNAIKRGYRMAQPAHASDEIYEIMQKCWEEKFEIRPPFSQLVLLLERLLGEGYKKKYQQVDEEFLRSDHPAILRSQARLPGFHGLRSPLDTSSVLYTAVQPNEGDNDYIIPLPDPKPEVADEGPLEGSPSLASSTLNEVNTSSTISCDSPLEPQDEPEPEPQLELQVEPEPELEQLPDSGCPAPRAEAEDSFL
T1 sequence (P10721 26-976): as the sequence (P10721 26-976 D816V) above, with V791D counted along it
T3 sequence (P16234 24-1089): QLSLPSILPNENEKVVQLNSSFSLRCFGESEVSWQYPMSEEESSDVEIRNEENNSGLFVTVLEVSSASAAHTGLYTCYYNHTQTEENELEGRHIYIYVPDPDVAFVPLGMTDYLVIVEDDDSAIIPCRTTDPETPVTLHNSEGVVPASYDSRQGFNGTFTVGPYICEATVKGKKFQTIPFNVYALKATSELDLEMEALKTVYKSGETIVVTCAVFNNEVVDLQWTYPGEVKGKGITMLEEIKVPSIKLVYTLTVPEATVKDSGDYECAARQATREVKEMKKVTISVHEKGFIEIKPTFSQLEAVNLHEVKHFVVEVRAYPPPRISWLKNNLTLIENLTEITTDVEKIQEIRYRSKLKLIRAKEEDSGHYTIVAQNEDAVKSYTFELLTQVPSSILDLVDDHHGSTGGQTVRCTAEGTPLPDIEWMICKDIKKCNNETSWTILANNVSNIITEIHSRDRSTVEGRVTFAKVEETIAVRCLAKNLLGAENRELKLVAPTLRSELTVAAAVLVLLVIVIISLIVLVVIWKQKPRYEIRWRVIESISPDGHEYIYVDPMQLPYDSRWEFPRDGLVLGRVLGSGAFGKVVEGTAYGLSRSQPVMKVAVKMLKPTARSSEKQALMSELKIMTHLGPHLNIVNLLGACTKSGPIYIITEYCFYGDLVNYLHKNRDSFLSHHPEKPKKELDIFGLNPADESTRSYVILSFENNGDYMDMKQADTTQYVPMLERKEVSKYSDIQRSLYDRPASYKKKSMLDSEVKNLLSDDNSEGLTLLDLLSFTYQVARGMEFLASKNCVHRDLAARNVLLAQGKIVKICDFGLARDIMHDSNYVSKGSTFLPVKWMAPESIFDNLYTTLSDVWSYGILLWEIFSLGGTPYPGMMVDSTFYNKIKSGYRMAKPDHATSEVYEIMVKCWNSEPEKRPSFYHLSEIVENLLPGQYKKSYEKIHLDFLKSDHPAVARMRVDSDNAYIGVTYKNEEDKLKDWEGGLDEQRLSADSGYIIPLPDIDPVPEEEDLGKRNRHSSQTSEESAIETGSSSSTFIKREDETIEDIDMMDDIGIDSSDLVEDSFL

Turning to `COc1cc2c(-c3ccc(NC(=O)Cc4ccc(C(F)(F)F)cc4)cc3)ncnc2cc1OCCCN1CCN(C)CC1` [Example 9, N-(4-(6-methoxy-7-(3-(4-methylpiperazin-1-yl)propoxy)quinazolin-4-yl)phenyl)-2-(4-(trifluoromethyl)phenyl)acetamide], the “control percentage (% control), KIT” value in the test with various kinases is on record as “⊚”. In addition, the “control percentage (% control), KIT (A829P)” value in the test on various kinases is on record as “⊚”. Further, the “control percentage (% control), KIT (D816H)” value in the test with various kinases is recorded as “⊚”. Moreover, in the test on various kinases, the “control percentage (% control), KIT (D816V)” value is listed as “⊚”. For the same molecule, the “control percentage (% control), KIT (L576P)” value in the test on various kinases is “◯ (◯: 10% or more to less than 35%)”. In the test on various kinases, the “control percentage (% control), KIT (V559D)” value is “◯ (◯: 10% or more to less than 35%)”. The IC50 on human c-KIT(wt), at c-KIT D816V [1], at human PDGFR-α(wt) and at human PDGFR-β(wt) was not above 50 nM in each case. The GI50 in the test with Ba/F3-TEL-PDGFβ(WT), in the test on c-KIT D814Y, in the test with Ba/F3-TEL-PDGFRα(WT), in the test with Ba/F3-c-KIT(D816V) and with c-KIT V560G/D816V was not above 200 nM in each case.
Turning to `COc1cc2c(-c3ccc(NC(=O)Cc4ccc(C(F)(F)F)cc4)cc3)ncnc2cc1OCCN1CCN(C)CC1` [Example 3, N-(4-(6-methoxy-7-(2-(4-methylpiperazin-1-yl)ethoxy)quinazolin-4-yl)phenyl)-2-(4-(trifluoromethyl)phenyl)acetamide], the “control percentage (% control), KIT” value with various kinases was “⊚”. Also, the “control percentage (% control), KIT (A829P)” value in the test on various kinases is recorded as “⊚”. In addition, the “control percentage (% control), KIT (D816H)” value in the test with various kinases was “⊚”. Further, the “control percentage (% control), KIT (D816V)” value in the test with various kinases is “⊚”. Further, the “control percentage (% control), KIT (L576P)” value with various kinases was “⊚”. Moreover, the “control percentage (% control), KIT (V559D)” value in the test with various kinases is on record as “⊚”. Moreover, the “control percentage (% control), KIT (V559D, T670I)” value with various kinases (KIT (V559D, T670I)) was “◯ (◯: 10% or more to less than 35%)”. Also, the “control percentage (% control), KIT (V559D, V654A)” value in the test with various kinases (KIT (V559D, V654A)) is given as “⊚”. Further, the “control percentage (% control), KIT-autoinhibited” value in the test on various kinases (KIT-autoinhibited) is on record as “◯ (◯: 10% or more to less than 35%)”. Also, the “control percentage (% control), PDGFRA” value in the test on various kinases (PDGFRA) was “⊚”. Moreover, in the test with various kinases (PDGFRB), the “control percentage (% control), PDGFRB” value was “⊚”. Moreover, the IC50 on human c-KIT(wt), at c-KIT D816V [1], at human PDGFR-α(wt) and on human PDGFR-β(wt) was not above 50 nM throughout. The GI50 in the test on Ba/F3-TEL-PDGFβ(WT), in the test on c-KIT D814Y, in the test on Ba/F3-TEL-PDGFRα(WT), with Ba/F3-c-KIT(D816V) and with c-KIT V560G/D816V was not above 200 nM each time.
Regarding `Cc1ccc(NC(=O)c2ccc(CN3CCN(C)CC3)cc2)cc1Nc1nccc(-c2cccnc2)n1` [imatinib], the “effect of inhibiting c-KIT D816V” value at c-KIT D816V [2] is reported as “no effect”.

(Values after patent publication US20260138959A1, “QUINAZOLINE DERIVATIVE COMPOUND AND USE THEREOF” (VORONOI INC., priority 2021, published 2026).)
